According to patent US7572803B2 (The Christus Stehlin Foundation for Cancer Research, priority 2007, dated 2009):
Several values for one entry are separate records, joined by “and”; a condition that tells them apart may be missing. Equal values may be shown once.

What was measured:
human tumor xenografts = conditions: in mice, against human tumor xenografts; cited from earlier work
[1] = Pharmacokinetics for CPT in human plasma (lactone ring intact); assay type: in vitro ADME; conditions: read-out: half-life time of the drug with the lactone ring intact
[2] = Determination of PK parameters after oral administration to nude mice; assay type: in vivo
Protocol: The determination of PK parameters of crystalline CZ48 hydrate. Pharmacokinetic profile of crystalline camptothecin-20-O-propionate hydrate with a single dose of 2000 mg/kg was recorded following an oral administration to nude mice. […] Camptothecin-20-O-acetate, an analogue of CZ48 which was not a crystalline hydrate, was used as an internal standard for determining all PK parameters of the CZ48 hydrate. A 100 μL plasma from the mouse treated with crystalline CZ48 hydrate at dose of 2000 mg/kg was transferred into a 2-mL test-tube, and then 100 μL of internal-standard working solution (400 ng/mL) was also added to the tube. To the mixture, were also added 200 μL of 1% acetic acid solution and 1 mL ethyl ether. After vortex-mixing for 10 s, the mixture was incubated at room temperature on a shaker for 10 min, and then centrifuged at 10,000×g for 15 min. The upper layer obtained from the centrifugation was transferred into a clean tube and evaporated to dryness using an evaporator at 40° C. under a stream of nitrogen. The residue was reconstituted in 200 μL of water/acetonitrite (50/50, v/v) solvent system, and a 20-μL portion of the aliquot was injected into HPLC system for analysis. For the study, A 100 μL blank plasma from untreated mouse was also processed in the same manner as the treated.

human Bladder tumor line = test: Anti-tumor activity, bladder tumor xenografts in nude mice; assay type: in vivo; conditions: oral
Excerpt: (§1) In vivo anti-tumor activity determination. The human tumors used in the experiments discussed herein included 1 bladder line, 3 breast lines, 4 colon lines, 1 DSRCT line, 1 kidney line, 2 melanoma lines, 2 lung lines, 7 pancreatic lines, and 1 prostate line. The hydrated crystalline CZ48 drug was finely suspended in cottonseed oil and stored in a refrigerator for using. The suspension was orally administered to the mice bearing human tumors once a day continuously for 5 days on and 2 days off or once a day for seven days for the whole treatment period. The treatment period for the various tumor lines varied, ranging from two weeks to one year. […] With the continuous schedule (daily treatment), one of those two negatively responded pancreatic tumor lines under the 5/2 schedule achieved the positive response.
(§2) In vivo anti-tumor activity determination. All the animal experiments were performed on nude Swiss mice of the NIH, high-fertility strain. They were bred and raised in laboratory under strict pathogen-free conditions. For anti-tumor activity determination, a tumor xenograft growing in a nude mouse, approximately 1 cm^3 in size, was surgically removed under sterile conditions, finely minced with iridectomy scissors, and suspended in cell culture medium at the ratio 1:10, v/v. […] Tumors growing in animals were checked and measured with a caliper once a week. […]

[3] = system: PC3P62 prostate tumor line; test: Effective dose, PC3P62 xenograft in nude mice; assay type: in vivo, human; conditions: oral, dose giving positive response
Protocol: (§3) In vivo anti-tumor activity determination. All the animal experiments were performed on nude Swiss mice of the NIH, high-fertility strain. They were bred and raised in laboratory under strict pathogen-free conditions. For anti-tumor activity determination, a tumor xenograft growing in a nude mouse, approximately 1 cm^3 in size, was surgically removed under sterile conditions, finely minced with iridectomy scissors, and suspended in cell culture medium at the ratio 1:10, v/v. One half of 1 mL of this suspension, containing about 50 mg of wet-weight tumor mince was subcutaneously inoculated on the upper half of the dorsal thorax of the mouse. Groups of four or five animals were used. Hydrated crystalline CZ48 was finely suspended in cottonseed oil and then injected into the stomach cavity of the mouse through the anterior abdominal wall using a 26 gauge needle. The weekly schedule used for oral administration of hydrated crystalline CZ48 was once a day for 7 days, or five days on and two days off. This schedule was employed throughout all the animal experiments. Treatment was initiated when the tumor had reached a volume of about 200 mm^3, i.e., well-vascularized, measurable, and growing exponentially. Tumors growing in animals were checked and measured with a caliper once a week. The effective doses were established when a positive response in mouse was reached.

human xenografts = test: In vivo anti-tumor activity against human tumor xenografts in nude mice (all lines); conditions: oral, cottonseed oil suspension, 5 days-on and 2 days-off schedule
Excerpt: as §1, §2

human Melanoma lines = test: Anti-tumor activity, melanoma xenografts in nude mice; assay type: in vivo; conditions: oral
Excerpt: as §1, §2

[4] = system: HS766T pancreas tumor line; test: Effective dose, HS766T xenograft in nude mice; assay type: in vivo, human; conditions: oral, dose giving positive response
Protocol: as §3

FOSS melanoma line = test: Effective dose, FOSS xenograft in nude mice; assay type: in vivo, human; conditions: oral, dose giving positive response
Protocol: as §3

SPA lung tumor line = test: Effective dose, SPA xenograft in nude mice; assay type: in vivo, human; conditions: oral, dose giving positive response
Protocol: as §3

BRO melanoma line = test: Effective dose, BRO xenograft in nude mice; assay type: in vivo, human; conditions: oral, dose giving positive response
Protocol: as §3

[5] = In situ single-pass intestinal perfusion, percentage absorption in mouse; assay type: in vivo, nude mice
Protocol: The determination of percentage absorption of crystalline CZ48 hydrate in mouse. Absorption studies were also performed with crystalline camptothecin-20-O-propionate hydrate by using a mouse perfusion procedure on 4 nude mice. Prior to the in situ single-pass perfusion procedure, HBSS buffer (pH 7.4) consisting of 9.801 g/L HBSS powders, 0.372 g/L NaHCO3, 3.502 g/L glucose, 5.963 g/L HEPES, and 1.164 g/L NaCl was prepared and stored in a refrigerator. The perfusate for the procedure was prepared by mixing a certain amount of the drug, crystalline CZ48 hydrate, with an amount of HBSS buffer. The mixture was heated up to 37° C. (body temperature) right before use. A group of 4 mice with weights ranging from 25 to 30 grams and ages ranging from 9 to 11 months were anesthetized and placed onto a heating plate. The plate was maintained a constant temperature of 37° C. After a perfusion system was set ready with a mouse, two segments of the intestine (small intestine, IS, and colon) were simultaneously perfused with the freshly prepared perfusate. The pump was maintained at a constant flow-rate of 0.191 mL/min for the whole perfusion. Two perfusate samples were collected from each outlet (SI tract or colon) every 30 min. The concentrations of the drug in perfusate from the outlets were determined by HPLC analysis, and the corresponding percentage absorptions were calculated relative to the starting amount of the drug and shown in Table 5.

SU86.86-pancreas = test: Effective dose, SU86.86 xenograft in nude mice; assay type: in vivo, human; conditions: oral, dose giving positive response
Protocol: as §3

MUR breast tumor line = test: Effective dose, MUR xenograft in nude mice; assay type: in vivo, human; conditions: oral, dose giving positive response
Protocol: as §3

HT29 colon tumor line = test: Effective dose, HT29 xenograft in nude mice; assay type: in vivo, human; conditions: oral, dose giving positive response
Protocol: as §3

PANC1-pancreas = test: Effective dose, PANC1 xenograft in nude mice; assay type: in vivo, human; conditions: oral, dose giving positive response
Protocol: as §3

MYE DSRCT line = test: Effective dose, MYE xenograft in nude mice; assay type: in vivo, human; conditions: oral, dose giving positive response
Protocol: as §3

[6] = system: MiaPaCa2 pancreas tumor line; test: Effective dose, MiaPaCa2 xenograft in nude mice; assay type: in vivo, human; conditions: oral, dose giving positive response
Protocol: as §3

human DSRCT line = test: Anti-tumor activity, DSRCT xenografts in nude mice; assay type: in vivo; conditions: oral
Excerpt: as §1, §2

human Lung tumor lines = test: Anti-tumor activity, lung tumor xenografts in nude mice; assay type: in vivo; conditions: oral
Excerpt: as §1, §2

LIE pancreas tumor line = test: Effective dose, LIE xenograft in nude mice; assay type: in vivo, human; conditions: oral, dose giving positive response
Protocol: as §3

SQU colon tumor line = test: Effective dose, SQU xenograft in nude mice; assay type: in vivo, human; conditions: oral, dose giving positive response
Protocol: as §3

human Colon tumor lines = test: Anti-tumor activity, colon tumor xenografts in nude mice; assay type: in vivo; conditions: oral
Excerpt: as §1, §2

CAK-kidney = test: Effective dose, CAK xenograft in nude mice; assay type: in vivo, human; conditions: oral, dose giving positive response
Protocol: as §3

McC colon tumor line = test: Effective dose, McC xenograft in nude mice; assay type: in vivo, human; conditions: oral, dose giving positive response
Protocol: as §3

SW48 colon tumor line = test: Effective dose, SW48 xenograft in nude mice; assay type: in vivo, human; conditions: oral, dose giving positive response
Protocol: as §3

[7] = system: human Pancreas tumor lines; test: Anti-tumor activity, pancreatic tumor xenografts in nude mice; assay type: in vivo; conditions: oral
Excerpt: as §1
as §3, with “Treatment was initiated when the tumor had reached a volume of about 200 mm^3, i.e., well-vascularized, measurable, and growing exponentially.” left out, “The effective doses were established when a positive response in mouse was reached.” left out

CLO-breast carcinoma = test: Effective dose, CLO xenograft in nude mice; assay type: in vivo, human; conditions: oral
Protocol: as §3

WAR breast tumor line = test: Effective dose, WAR xenograft in nude mice; assay type: in vivo, human; conditions: oral, dose giving positive response
Protocol: as §3

BOL bladder tumor line = test: Effective dose, BOL xenograft in nude mice; assay type: in vivo, human; conditions: oral, dose giving positive response
Protocol: as §3

DOY lung tumor line = test: Effective dose, DOY xenograft in nude mice; assay type: in vivo, human; conditions: oral, dose giving positive response
Protocol: as §3

human Breast tumor lines = test: Anti-tumor activity, breast tumor xenografts in nude mice; assay type: in vivo; conditions: oral
Excerpt: as §1, §2

[8] = In vivo toxicity determination (body weight) in nude mice; conditions: continuously for 60 days
Protocol: In vivo toxicity determination. Groups of 4 or 5 animals of about the same age and having similar weights were chosen and treated with crystalline CZ48 hydrate orally at doses of 1500 mg/kg and 2000 mg/kg, respectively, continuously for 60 days. The 3 groups of mice chosen for the toxicity studies were healthy, of similar age and weights, and non-tumor-bearing. One group was used as control, and the other two groups were treated with the drug at two high-dose levels, 1500 mg/kg and 2000 mg/kg respectively, for about two months. The body weight changes in animals during the treatment were recorded for the treated group versus the untreated group beginning at day 0 and ending at the 60th day.
The body-weight loss was used as a parameter to measure the toxicity of the agent. Usually, body weight loss of 10% or more in mice during treatment is considered a sign of toxicity. Greater body-weight loss signifies greater toxicity.

[9] = system: ASPC1 pancreas tumor line; test: Effective dose, ASPC1 xenograft in nude mice; assay type: in vivo, human; conditions: oral, dose giving positive response
Protocol: as §3

## CC[C@@]1(O)C(=O)OCc2c1cc1n(c2=O)Cc2cc3c([N+](=O)[O-])cccc3nc2-1 [9-nitrocamptothecin]
Human tumor xenografts
  potency relative to CPT: 2-3 times

## CC[C@@]1(O)C(=O)OCc2c1cc1n(c2=O)Cc2cc3ccccc3nc2-1 [CPT, camptothecin, reference compound]
[1]
  half-life: ~30 min
[2]; mice, oral hydrated crystalline CZ48 2000 mg/kg, plasma, CPT = major metabolite
  Ke: 0.40 ± 0.13 h⁻¹

## CCC(=O)O[C@]1(CC)C(=O)OCc2c1cc1n(c2=O)Cc2cc3ccccc3nc2-1 [hydrated crystalline CZ48, crystalline camptothecin-20-O-propionate hydrate]
Human Bladder tumor line
  Response Positive (inhibition of growth bigger than 50%), lines responding/tested: 1/1
[3]
  Effective dose: 300 mg/kg
Human xenografts
  tumor lines that achieved positive response (greater than 50% inhibition in tumor-growth inhibition): 18 lines
Human Melanoma lines
  Response Positive (inhibition of growth bigger than 50%), lines responding/tested: 2/2
[4]
  Effective dose: 100 mg/kg
FOSS melanoma line
  Effective dose: 300 mg/kg
SPA lung tumor line
  Effective dose: 100 mg/kg
BRO melanoma line
  Effective dose: 100 mg/kg
[5]; colon, average of 4 mice
  % Crystalline CZ48 Hydrate Absorptions, Colon, Ave: −19.46%
[5]; colon, individual mice No. 1-4, HBSS pH 7.4, 37° C., 0.191 mL/min, listed as Crystalline CZ48 Hydrate, hydrate
  % Crystalline CZ48 Hydrate Absorptions, Colon: 8.04% and −35.17% and −73.24% and 6.82%
[5]; small intestine, average of 4 mice
  % Crystalline CZ48 Hydrate Absorptions, SI, Ave: 22.23%
[5]; small intestine, individual mice No. 1-4, HBSS pH 7.4, 37° C., 0.191 mL/min, listed as Crystalline CZ48 Hydrate, hydrate
  % Crystalline CZ48 Hydrate Absorptions, SI: 11.49% and 16.51% and 9.34% and 45.85%
SU86.86-pancreas
  Effective dose: 1000 mg/kg
MUR breast tumor line
  Effective dose: 300 mg/kg
HT29 colon tumor line
  Effective dose: 50 mg/kg
PANC1-pancreas
  Effective dose: 1000 mg/kg
MYE DSRCT line
  Effective dose: 100 mg/kg
[6]
  Effective dose: 100 mg/kg
Human DSRCT line
  Response Positive (inhibition of growth bigger than 50%), lines responding/tested: 1/1
Human Lung tumor lines
  Response Positive (inhibition of growth bigger than 50%), lines responding/tested: 2/2
LIE pancreas tumor line
  Effective dose: 100 mg/kg
SQU colon tumor line
  Effective dose: 30 mg/kg
Human Colon tumor lines
  Response Positive (inhibition of growth bigger than 50%), lines responding/tested: 4/4
CAK-kidney
  Effective dose: 1000 mg/kg
McC colon tumor line
  Effective dose: 300 mg/kg
SW48 colon tumor line
  Effective dose: 100 mg/kg
[2]; nude, mouse, in vivo, po, 2000 mg/kg
  AUC(0-t): 1930 ± 114 ng·h/mL
[7]; Pancreas, nude mice
  Response Negative (inhibition of growth smaller than 50%), lines/tested: 1/7
  Response Positive (inhibition of growth bigger than 50%), lines responding/tested: 6/7
[7]; 5 days-on and 2 days-off schedule
  pancreatic tumor lines that failed to obtain the positive response: 2 lines
CLO-breast carcinoma; CLO (Breast), nude mice, dose giving positive response
  Effective dose: 4 mg/kg
CLO-breast carcinoma; CLO-breast carcinoma, dose 4 mg/kg
  tumor growth inhibition: complete inhibition
WAR breast tumor line
  Effective dose: 200 mg/kg
BOL bladder tumor line
  Effective dose: 200 mg/kg
DOY lung tumor line
  Effective dose: 15 mg/kg
Human Breast tumor lines
  Response Positive (inhibition of growth bigger than 50%), lines responding/tested: 3/3
[8]; 1500 mg/kg and 2000 mg/kg orally, non-tumor-bearing mice
  toxicity in the treated mice: no noticeable toxicity
[8]; oral, implied from no significant body-weight loss
  dose mice could tolerate: higher than 2000 mg/kg
[9]
  Effective dose: 300 mg/kg
